Measurements as given in PMC10179460, “Computational and Enzymatic Studies of Sartans in SARS-CoV-2 Spike RBD-ACE2 Binding: The Role of Tetrazole and Perspectives as Antihypertensive and COVID-19 Therapeutics” (International Journal of Molecular Sciences, 2023).
pKd: −log10 of the molar value.

Target: T1, ACE2 (angiotensin-converting enzyme 2) (Homo sapiens, UniProt Q9BYF1)
T1 construct: recombinant human ACE2, His-tag and Strep-tag, from Sf9 insect cells
Assay: SPR (Biacore T200, immobilized ACE2, […] kinetic model)
Assay type: binding

T1 sequence (Q9BYF1 18-805): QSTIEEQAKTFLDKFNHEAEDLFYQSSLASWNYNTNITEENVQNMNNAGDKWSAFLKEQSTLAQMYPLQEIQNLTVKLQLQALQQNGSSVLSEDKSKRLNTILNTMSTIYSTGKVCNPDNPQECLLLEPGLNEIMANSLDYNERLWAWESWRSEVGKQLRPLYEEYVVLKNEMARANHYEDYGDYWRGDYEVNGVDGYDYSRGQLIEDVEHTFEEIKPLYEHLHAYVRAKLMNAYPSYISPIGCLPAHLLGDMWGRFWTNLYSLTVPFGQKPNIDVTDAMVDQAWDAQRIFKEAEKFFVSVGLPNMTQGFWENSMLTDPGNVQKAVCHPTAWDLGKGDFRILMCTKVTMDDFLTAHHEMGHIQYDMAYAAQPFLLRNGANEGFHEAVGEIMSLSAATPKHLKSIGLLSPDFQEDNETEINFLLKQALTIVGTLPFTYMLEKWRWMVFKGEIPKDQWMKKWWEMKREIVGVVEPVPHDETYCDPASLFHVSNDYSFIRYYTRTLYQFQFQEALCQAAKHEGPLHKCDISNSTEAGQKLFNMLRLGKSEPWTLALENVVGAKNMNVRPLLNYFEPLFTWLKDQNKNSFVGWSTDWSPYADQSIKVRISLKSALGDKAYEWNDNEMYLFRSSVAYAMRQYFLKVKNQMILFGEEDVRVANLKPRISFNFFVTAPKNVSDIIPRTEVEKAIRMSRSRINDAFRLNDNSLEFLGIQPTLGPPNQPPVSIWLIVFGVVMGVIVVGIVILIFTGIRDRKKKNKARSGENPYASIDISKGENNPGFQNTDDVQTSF

## CCCCc1nc(Cl)c(CO)n1Cc1ccc(-c2ccccc2-c2nn[nH]n2)cc1 [losartan]
  pKd: 7.86
